US8592172B2, “Bioluminescent assays using cyanobenzothiazole compounds” (Promega Corporation, priority 2010, dated 2013)

Legend:
[1] = biological target: Human recombinant CYP450 1A2 (Homo sapiens, UniProt P05177)
Protocol: (§1) Equal volumes of P450-Glo LDR with 6.6 mM D-Cysteine was added into the CYP450 reactions.

[2] = tested on: CYP450 1A2 activity in human liver microsomes; test: Human liver microsome assay with compound 3019
Protocol: as §1

CYP1A2 [3] = test: Non-lytic cell-based assay with human hepatocytes, compound 3019; details: non-lytic, 3 μM compound 3019, 1 hour
Protocol: Human cryopreserved hepatocytes (Celsis lot RTM) were thawed and seeded in hepatocyte culture medium in wells of a collagen-coated, 96-well culture plate at ˜70,000 cells per well and kept at 37° C. in standard cell culture incubator with 5% CO2. The cells were then treated for 48 hours with 100 μM omeprazole or vehicle control (0.1% dimethylsulfoxide) dissolved in hepatocytes culture medium (n═3 for each treatment, mean values and standard deviations are shown). […] 50 μl of the KH incubation buffer was then removed from each well and transferred to a well of a white, 96-well luminometer plate (Costar) where it was also combined with 50 μl of P450-Glo LDR containing 6.6 mM D-cysteine.

CYP1A2 [4] = test: Non-lytic assay with rat hepatocytes, compound 3019; type: cell-based; details: 10 nM TCDD 48 hours, 3 μM compound 3019

Sequence of Human recombinant CYP450 1A2 (P05177 whole entry): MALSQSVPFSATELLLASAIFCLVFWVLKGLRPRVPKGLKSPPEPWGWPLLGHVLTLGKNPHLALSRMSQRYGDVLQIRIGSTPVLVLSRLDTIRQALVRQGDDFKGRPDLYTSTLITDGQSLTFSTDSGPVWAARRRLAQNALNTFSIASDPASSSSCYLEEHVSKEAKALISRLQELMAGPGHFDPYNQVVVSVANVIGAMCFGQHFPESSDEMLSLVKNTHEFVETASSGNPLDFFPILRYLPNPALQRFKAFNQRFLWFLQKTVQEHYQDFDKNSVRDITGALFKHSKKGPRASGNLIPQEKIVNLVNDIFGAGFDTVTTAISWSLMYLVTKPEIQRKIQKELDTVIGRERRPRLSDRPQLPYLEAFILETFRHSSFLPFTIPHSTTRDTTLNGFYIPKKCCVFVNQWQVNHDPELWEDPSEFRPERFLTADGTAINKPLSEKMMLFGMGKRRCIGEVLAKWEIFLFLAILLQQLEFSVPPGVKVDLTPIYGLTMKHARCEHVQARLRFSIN

Compound | substrate status for CYP450 1A2 [1] | activity with compound 3019 in human liver microsomes [2] | entry of substrate into cells (CYP1A2 [3]) | change of basal signal (CYP1A2 induction) (CYP1A2 [4])
CC(C)OC(OC(C)C)C1CSC(c2nc3ccc(O)cc3s2)=N1 (stereo not shown) [Compound 3019] | is indeed a CYP450 1A2 substrate | substantial activity | entered the cell | –
Clc1cc2c(cc1Cl)Oc1cc(Cl)c(Cl)cc1O2 [TCDD, 2,3,7,8-tetrachlorodibenzo-p-dioxin] | – | – | – | significantly increased
